Like-named read-outs stand apart in the source and are kept apart here.
Columns and labels:
[1] = target: T1, PI3Kγ (Homo sapiens, UniProt P48736); assay: PI3-Kinase HTRF assay, PI3Kγ; type: biochemical; settings: bins Greater than 10 μM and Greater than 1 μM to 10 μM; 10 μM ATP, PIP2 at 10 μM
T1 construct: purchased Millipore Corporation 14-558-K
Description: (§1) A PI3-Kinase HTRF® assay kit (cat No. 33-016) purchased from Millipore Corporation was used to screen compounds provided herein. This assay used specific, high affinity binding of the GRPI pleckstrin homology (PH) domain to PIP3, the product of a Class 1A or 1B PI3 Kinase acting on its physiological substrate PIP2. During the detection phase of the assay, a complex was generated between the GST-tagged PH domain and biotinylated short chain PIP3. The biotinylated PIP3 and the GST-tagged PH domain recruited fluorophores (Streptavidin-Allophycocyanin and Europium-labeled anti-GST respectively) to form the fluorescence resonance energy transfer (FRET) architecture, generating a stable time-resolved FRET signal. The FRET complex was disrupted in a competitive manner by non-biotinylated PIP3, a product formed in the PI3 Kinase assay.
(§2) PI3 Kinase α, β, γ and δ activity was assayed using the PI3 Kinase HTRF® assay kit (catalogue No. 33-016) purchased from Millipore Corporation. Purified recombinant PI3Kα (catalogue No. 14-602-K), PI3Kβ (catalogue No. 14-603-K), PI3Kγ (catalogue No. 14-558-K) and PI3Kδ (catalogue No. 14-604-K) were obtained from Millipore Corporation. Purified recombinant PI3K enzyme was used to catalyze the phosphorylation of phosphatidylinositol 4,5-bisphosphate (PIP2 at 10 μM) to phosphatidylinositol 3,4,5-trisphosphate (PIP3) in the presence of 10 μM ATP. The assay was carried out in 384-well format and detected using a Perkin Elmer EnVision Xcite Multilabel Reader. Emission ratios were converted into percent inhibitions and imported into GraphPad Prism software. The concentration necessary to achieve inhibition of enzyme activity by 50% (IC50) was calculated using concentrations ranging from 20 μM to 0.1 nM (12-point curve). IC50 values were determined using a nonlinear regression model available in GraphPad Prism 5. […]

[2] = test system: Balb/c splenic B cells; assay: B cell activation and proliferation assay; type: cell-based; settings: Mus musculus, Greater than 1 μM to 10 μM, read-out: B cell proliferation EC50
Method in brief: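 Balb/c splenic B cells were isolated by Ficoll gradient and magnetic separation, plated at 50.000 cells/well in RPMI/10% FBS, and pre-incubated with compound for 30 min at 37° C (0.2% DMSO). Cells were stimulated for 72 h with a cocktail of 10 μg/ml LPS or 5 μg/ml anti-mouse IgM F(ab′)2 plus 2 ng/ml IL4. Alamar Blue fluorescence (560Ex/590Em) after 5 h gave IC50 or EC50.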

[3] = target: T2, PI3Kδ (Homo sapiens, UniProt O00329); assay: PI3-Kinase HTRF assay, PI3Kδ; type: biochemical; settings: bins Greater than 10 μM and Greater than 1 μM to 10 μM; 10 μM ATP, PIP2 at 10 μM
T2 construct: purchased Millipore Corporation 14-604-K
Description: as §1, §2

[4] = target: T3, PI3Kα (Homo sapiens, UniProt P42336); assay: PI3-Kinase HTRF assay, PI3Kα; type: biochemical; settings: bins Greater than 10 μM and Greater than 1 μM to 10 μM; 10 μM ATP, PIP2 at 10 μM; read-out: IC50 P13Kα
T3 construct: purchased Millipore Corporation 14-602-K
Method in brief: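 Purified recombinant human PI3Kα, β, γ or δ (0.25-0.3 μg/ml) preincubated 15 min at room temperature with compound (2% DMSO) and 10 μM PIP2, then reacted 1 h with 10 μM ATP. PIP3 product detected by competitive HTRF (GST-PH domain/biotin-PIP3); IC50 from 12-point curves, 20 μM to 0.1 nM, by nonlinear regression.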

[5] = test system: phospho-AKT in RAW 264.7 cells (PI3Kγ); assay: PI3Kγ selective assay, phospho-AKT in RAW 264.7 cells; type: cell-based; settings: Mus musculus, RAW264.7, stimulated with C5a, read-out: IC50 for phospho-AKT, RAW 264.7 cell model
Description: A compound's ability in selectively inhibiting PI3Kγ can be assessed using RAW264.7 macrophages. Briefly, serum-starved PAW264.7 cells are stimulated with a known GPCR agonist C5a. (See, e.g., Camps et al., Nature Medicine (2005) 11(9): 936-943). Cells can be treated with test compounds prior to, simultaneously with, or subsequent to the stimulation by C5a. RAW 264.7 cells respond to the complement component fragment C5a through activation of the C5a receptor, and the C5a receptor activates macrophages and induces cell migration. Test compounds' ability to inhibit C5a-mediated AKT phosphorylation is indicative of selective inhibition of PI3Kγ. Thus, by monitoring the reduction of phospho-AKT in stimulated RAW 264.7 cells (using for example, phospho-AKT antibodies), a compound's potential efficacy in selectively inhibiting PI3Kγ can be assessed.

[6] = test system: phospho-AKT in RAJI cells (PI3Kδ); assay: PI3Kδ selective assay, phospho-AKT in RAJI cells; type: cell-based; settings: RAJI cells stimulated with anti-human IgM; read-out: IC50 for phospho-AKT, RAJI cell model
Description: A compound's ability in selectively inhibiting PI3Kδ can be assessed using RAJI cells, i.e., B lymphocyte cells derived from lymphoma patients. Briefly, serum-starved RAJI cells are stimulated with anti-human IgM, thereby causing signaling through the B-cell receptors, as described in, for example, He et al., Leukemia Research (2009) 33: 798-802. B-cell receptor signaling is important for the activation, differentiation, and survival of B cells and certain B-cell derived cancers. Reduction of phospho-AKT is indicative of compounds that may inhibit B-cell proliferation and function in certain diseases. By monitoring the reduction of phospho-AKT in stimulated RAJI cells (using for example, phospho-AKT antibodies), a compound's potential efficacy in selectively inhibiting PI3Kδ can be assessed.

[7] = test system: phospho-AKT in 786-O cells (PI3Kβ); assay: PI3Kβ selective assay, phospho-AKT in 786-O cells; type: cell-based; settings: Homo sapiens, 786-0; ranges between 1 μM and 10 μM and greater than 10 μM; read-out: IC50 for phospho-AKT, 786-O cell model
Description: A compound's ability in selectively inhibiting PI3Kβ can be assessed using 786-O cells, i.e., human kidney carcinoma cell line. Briefly, 786-O cells, in which PI3Kβ is constitutively active, can be treated with test compounds. Test compounds' ability to inhibit AKT phosphorylation in 786-O cells, therefore, is indicative of selective inhibition of PI3β. Thus, by monitoring the reduction of phospho-AKT in 786-O cells (using for example, phospho-AKT antibodies), a compound's potential efficacy in selectively inhibiting PI3Kβ can be assessed.
Certain compounds provided herein (e.g., Compounds 5, 49, 138, 326, 328, 354, 359, 389, and 391) were tested in 786-O cell model using procedures as described above.

[8] = test system: phospho-AKT in SKOV-3 cells (PI3Kα); assay: PI3Kα selective assay, phospho-AKT in SKOV-3 cells; type: cell-based; settings: Homo sapiens, SK-OV-3; ranges between 1 μM and 10 μM and greater than 10 μM; read-out: IC50 for phospho-AKT, SKOV-3 cell model
Description: A compound's ability in selectively inhibiting PI3Kα can be assessed using SKOV-3 cells, i.e., human ovarian carcinoma cell line. Briefly, SKOV-3 cells, in which mutant PI3Kα is constitutively active, can be treated with test compounds. Test compounds' ability to inhibit AKT phosphorylation in SKOV-3 cells, therefore, is indicative of selective inhibition of PI3Kα. Thus, by monitoring the reduction of phospho-AKT in SKOV-3 cells (using for example, phospho-AKT antibodies), a compound's potential efficacy in selectively inhibiting PI3Kα can be assessed.
Certain compounds provided herein (e.g., Compounds 5, 49, 138, 326, 328, 354, 359, 389, and 391) were tested in SKOV-3 cell model using procedures as described above.

[9] = ranges less than 100 nM and between 100 nM and 1 μM (given as 100-1000)

T1 sequence (P48736 whole entry): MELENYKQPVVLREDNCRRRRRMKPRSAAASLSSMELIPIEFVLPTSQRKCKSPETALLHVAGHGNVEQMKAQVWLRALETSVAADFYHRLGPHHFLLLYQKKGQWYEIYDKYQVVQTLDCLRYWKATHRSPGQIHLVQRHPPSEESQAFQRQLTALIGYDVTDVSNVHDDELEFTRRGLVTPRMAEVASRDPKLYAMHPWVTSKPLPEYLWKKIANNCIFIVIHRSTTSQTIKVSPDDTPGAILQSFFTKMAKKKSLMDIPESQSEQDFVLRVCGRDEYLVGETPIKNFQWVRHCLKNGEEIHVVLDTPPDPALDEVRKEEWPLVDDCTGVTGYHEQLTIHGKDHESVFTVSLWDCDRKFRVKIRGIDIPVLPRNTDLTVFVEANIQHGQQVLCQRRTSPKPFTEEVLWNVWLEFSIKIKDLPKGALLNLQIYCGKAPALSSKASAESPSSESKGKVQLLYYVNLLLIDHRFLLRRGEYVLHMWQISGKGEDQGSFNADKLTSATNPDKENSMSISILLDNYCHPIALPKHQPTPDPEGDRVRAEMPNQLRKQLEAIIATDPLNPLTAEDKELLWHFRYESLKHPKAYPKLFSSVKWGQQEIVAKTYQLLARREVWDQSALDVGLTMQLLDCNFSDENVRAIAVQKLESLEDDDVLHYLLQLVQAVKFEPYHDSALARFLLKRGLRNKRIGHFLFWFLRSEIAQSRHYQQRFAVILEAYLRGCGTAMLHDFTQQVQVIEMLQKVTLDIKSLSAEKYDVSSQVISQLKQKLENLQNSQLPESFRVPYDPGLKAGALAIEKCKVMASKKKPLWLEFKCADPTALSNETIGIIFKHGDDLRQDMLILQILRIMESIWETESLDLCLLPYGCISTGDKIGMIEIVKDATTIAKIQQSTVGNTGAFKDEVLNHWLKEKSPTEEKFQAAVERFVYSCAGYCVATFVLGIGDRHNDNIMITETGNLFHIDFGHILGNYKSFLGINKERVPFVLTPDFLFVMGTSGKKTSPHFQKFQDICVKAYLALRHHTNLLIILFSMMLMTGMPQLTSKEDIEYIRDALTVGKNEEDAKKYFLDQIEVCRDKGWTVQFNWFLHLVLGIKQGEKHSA
T2 sequence (O00329 whole entry): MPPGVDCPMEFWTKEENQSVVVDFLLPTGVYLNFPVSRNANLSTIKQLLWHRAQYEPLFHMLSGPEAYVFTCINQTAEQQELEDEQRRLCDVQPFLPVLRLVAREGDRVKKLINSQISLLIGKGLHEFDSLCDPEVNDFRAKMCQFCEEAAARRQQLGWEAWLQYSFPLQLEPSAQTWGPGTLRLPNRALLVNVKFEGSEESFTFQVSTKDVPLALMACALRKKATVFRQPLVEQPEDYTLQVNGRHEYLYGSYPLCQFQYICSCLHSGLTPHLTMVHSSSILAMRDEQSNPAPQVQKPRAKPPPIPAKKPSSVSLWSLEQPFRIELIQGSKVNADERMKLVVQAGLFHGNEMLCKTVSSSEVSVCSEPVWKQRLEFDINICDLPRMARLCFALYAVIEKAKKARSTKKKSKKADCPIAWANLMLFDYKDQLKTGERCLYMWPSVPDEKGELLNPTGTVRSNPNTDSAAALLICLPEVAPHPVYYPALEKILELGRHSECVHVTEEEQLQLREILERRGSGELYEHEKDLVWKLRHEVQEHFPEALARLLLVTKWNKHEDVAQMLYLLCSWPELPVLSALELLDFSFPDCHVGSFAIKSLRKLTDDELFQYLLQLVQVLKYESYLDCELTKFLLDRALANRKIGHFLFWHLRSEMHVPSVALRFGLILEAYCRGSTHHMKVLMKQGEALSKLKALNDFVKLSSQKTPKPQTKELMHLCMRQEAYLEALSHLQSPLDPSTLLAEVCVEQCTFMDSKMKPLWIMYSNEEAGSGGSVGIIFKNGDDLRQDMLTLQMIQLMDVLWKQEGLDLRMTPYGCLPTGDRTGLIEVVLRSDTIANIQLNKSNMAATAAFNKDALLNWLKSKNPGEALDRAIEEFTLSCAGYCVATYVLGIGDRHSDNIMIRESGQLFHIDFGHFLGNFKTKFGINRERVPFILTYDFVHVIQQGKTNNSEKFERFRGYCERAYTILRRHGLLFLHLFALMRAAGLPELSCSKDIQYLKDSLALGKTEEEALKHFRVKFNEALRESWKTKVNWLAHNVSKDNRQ
T2 sequence (P27986 whole entry partner): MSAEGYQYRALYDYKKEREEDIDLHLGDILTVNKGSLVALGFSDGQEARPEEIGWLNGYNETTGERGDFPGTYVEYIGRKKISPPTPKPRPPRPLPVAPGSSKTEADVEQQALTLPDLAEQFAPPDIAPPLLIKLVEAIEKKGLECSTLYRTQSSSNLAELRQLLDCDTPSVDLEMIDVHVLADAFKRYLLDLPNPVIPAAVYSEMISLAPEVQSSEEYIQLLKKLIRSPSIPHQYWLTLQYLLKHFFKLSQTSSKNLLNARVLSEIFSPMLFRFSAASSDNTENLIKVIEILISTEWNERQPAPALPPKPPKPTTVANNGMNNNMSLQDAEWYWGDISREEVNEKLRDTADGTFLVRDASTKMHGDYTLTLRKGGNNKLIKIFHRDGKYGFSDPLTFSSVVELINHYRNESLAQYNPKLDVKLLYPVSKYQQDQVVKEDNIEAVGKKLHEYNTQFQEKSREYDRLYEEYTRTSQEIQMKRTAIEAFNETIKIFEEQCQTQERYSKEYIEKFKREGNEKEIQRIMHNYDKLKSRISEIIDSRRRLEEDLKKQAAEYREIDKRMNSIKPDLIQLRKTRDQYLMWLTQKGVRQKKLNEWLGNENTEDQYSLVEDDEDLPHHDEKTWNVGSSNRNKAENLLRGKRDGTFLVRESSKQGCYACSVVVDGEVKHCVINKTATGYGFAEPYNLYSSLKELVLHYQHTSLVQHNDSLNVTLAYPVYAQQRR
T3 sequence (P42336 whole entry): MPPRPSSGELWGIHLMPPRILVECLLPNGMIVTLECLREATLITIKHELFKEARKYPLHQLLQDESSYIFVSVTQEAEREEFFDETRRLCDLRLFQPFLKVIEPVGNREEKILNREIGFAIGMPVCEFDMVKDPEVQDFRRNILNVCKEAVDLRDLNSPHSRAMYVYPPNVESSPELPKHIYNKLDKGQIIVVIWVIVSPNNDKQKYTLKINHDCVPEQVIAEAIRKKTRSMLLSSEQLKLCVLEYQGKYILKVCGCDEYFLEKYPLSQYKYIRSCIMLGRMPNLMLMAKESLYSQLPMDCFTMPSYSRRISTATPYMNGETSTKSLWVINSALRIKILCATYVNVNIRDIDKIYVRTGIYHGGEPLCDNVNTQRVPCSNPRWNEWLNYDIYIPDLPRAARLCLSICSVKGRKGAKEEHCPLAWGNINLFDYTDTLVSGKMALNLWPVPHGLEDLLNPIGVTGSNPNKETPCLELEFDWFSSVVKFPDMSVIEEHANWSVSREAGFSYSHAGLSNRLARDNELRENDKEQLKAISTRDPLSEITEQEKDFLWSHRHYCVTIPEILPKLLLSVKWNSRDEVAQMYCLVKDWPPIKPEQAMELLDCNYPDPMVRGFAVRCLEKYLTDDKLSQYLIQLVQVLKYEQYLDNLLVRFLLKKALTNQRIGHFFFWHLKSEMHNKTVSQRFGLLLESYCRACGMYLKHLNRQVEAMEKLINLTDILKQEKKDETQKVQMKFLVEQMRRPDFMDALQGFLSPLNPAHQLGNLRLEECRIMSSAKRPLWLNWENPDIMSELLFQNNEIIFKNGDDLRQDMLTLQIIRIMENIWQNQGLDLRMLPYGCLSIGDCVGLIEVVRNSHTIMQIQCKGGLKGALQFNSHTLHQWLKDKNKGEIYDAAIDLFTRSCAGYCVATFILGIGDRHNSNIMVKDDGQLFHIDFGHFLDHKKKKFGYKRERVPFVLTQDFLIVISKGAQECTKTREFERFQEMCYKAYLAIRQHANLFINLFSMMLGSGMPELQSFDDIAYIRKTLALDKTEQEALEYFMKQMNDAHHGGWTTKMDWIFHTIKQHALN
T3 sequence (P27986 whole entry partner): as the sequence (P27986 whole entry partner) above

Compound | IC50 [1] | IC50 [3] | IC50 [4] | IC50 [5, 9] | IC50 [6] | IC50 ([5]; range between 1 μM and 10 μM) | IC50 [7] | IC50 [8] | EC50 [2]
COc1cc(N[C@@H](C)c2cc3cccc(Cl)c3c(=O)n2-c2ccccc2)nc(N)n1 [Compound 211] | 1000 to 10000 nM | 1000 to 10000 nM |  |  |  |  |  |  | 1000 to 10000 nM
COC(=O)c1cccc(-n2c([C@H](C)Nc3nc(N)ncc3C#N)cc3cccc(Cl)c3c2=O)c1 [Compound 316] | 1000 to 10000 nM |  | 1000 to 10000 nM | < 100 nM | < 100 nM |  |  |  | 
COc1ncc(-c2cccc3cc([C@H](C)Nc4nc(N)ncc4C#N)n(-c4ccon4)c(=O)c23)cn1 [Compound 333] | 1000 to 10000 nM |  |  |  | < 100 nM | 1000 to 10000 nM |  |  | 
Cc1ncc(-c2cccc3cc([C@H](C)Nc4nc(N)ncc4C#N)n(-c4ccon4)c(=O)c23)cn1 [Compound 334] | 1000 to 10000 nM |  |  |  | < 100 nM | 1000 to 10000 nM |  |  | 
COc1ncc(-c2cccc3cc([C@H](C)Nc4ncnc(N)c4C#N)n(-c4ccon4)c(=O)c23)cn1 [Compound 337] | 1000 to 10000 nM |  | 1000 to 10000 nM |  | < 100 nM | 1000 to 10000 nM |  |  | 

Second part, led by results:

IC50 [1] | IC50 [3] | IC50 [4] | IC50 [5, 9] | IC50 [6] | IC50 ([5]; range between 1 μM and 10 μM) | IC50 [7] | IC50 [8] | Compound | EC50 [2]
1000 to 10000 nM |  |  |  | < 100 nM | 1000 to 10000 nM |  |  | C[C@H](Nc1ncnc(N)c1C#N)c1cc2cccc(Cl)c2c(C(=O)NC2CCOCC2)n1 [Compound 353] | 
 |  |  | 100 to 1000 nM | < 100 nM |  | > 10000 nM | > 10000 nM | COc1nc(-c2cnc(N)nc2N[C@@H](C)c2cc3cccc(-c4ccc(=O)n(C)c4)c3c(=O)n2-c2ccccc2)cs1 [Compound 391] | 
1000 to 10000 nM | 1000 to 10000 nM | 1000 to 10000 nM | 100 to 1000 nM | < 100 nM |  |  |  | C[C@H](Nc1nc(N)ncc1C(=O)C1CC1)c1cc2cccc(Cl)c2c(=O)n1-c1ccccc1 [Compound 425] | 
1000 to 10000 nM | 1000 to 10000 nM |  |  |  |  |  |  | C[C@H](Nc1nc(N)ncc1C(=O)N1CC(F)(F)C1)c1cc2cccc(Cl)c2c(=O)n1-c1ccccc1 [Compound 434] | 
1000 to 10000 nM | 1000 to 10000 nM |  |  |  |  |  |  | COc1cc(-c2cccc3cc([C@H](C)Nc4nc(N)ncc4C(=O)NC4CC4)n(-c4ccccc4)c(=O)c23)ccn1 [Compound 441] | 1000 to 10000 nM

From patent US8785470B2, “Heterocyclic compounds and uses thereof” (Infinity Pharmaceuticals, Inc., priority 2011, dated 2014)
